This note sets out measurements from article PMC9499365, “Stereoselective Synthesis and Application of Gibberellic Acid-Derived Aminodiols” (International Journal of Molecular Sciences, 2022).

In series [1] the test system is HeLa cells (cervical cancer). Kind of series: MTT antiproliferative assay, HeLa. The format is cell-based, human. As to conditions: Homo sapiens, 72 h, read-out: Growth inhibition (%) ± SEM. How it is done:
(§1) The in vitro antiproliferative activities of the synthesized aminodiols 4–38 against a panel of different human cancer cell lines of gynecological origin, including cervical (SiHA and HeLa), breast (MCF7 and MDA-MB-231), and ovary (A2780) cancers were assayed by the MTT method. […] Cisplatin, a clinically applied anticancer agent, was used as a reference compound and the results are summarized in Figure 3 and Table S1 in Supporting Information. […] On the other hand, none of the prepared azole derivatives exerted relevant activity.
(§2) The growth-inhibitory effects of the gibberellic acid-based aminodiol derivatives were determined by a standard MTT (3-(4,5-dimethylthiazol-2-yl)-2,5-diphenyltetrazolium bromide) assay on a panel containing five cell lines, including Hela and Siha (cervical cancers); MDA-MB-231 and MCF-7 (breast cancers); and A2780 ovarian cancer cells. The most promising agents were additionally tested against NIH/3T3 mouse embryo fibroblast cells. All cell lines were purchased from the European Collection of Cell Cultures (Salisbury, UK) except SiHa, which was obtained from the American Tissue Culture Collection (Manassas, VA, USA). The cells were maintained in minimal essential medium supplemented with 10% fetal bovine serum, 1% non-essential amino acids, and 1% penicillin-streptomycin at 37 °C in a humidified atmosphere containing 5% CO2. All media and supplements were obtained from Lonza Group Ltd., (Basel, Switzerland). Cancer cells were seeded into 96-well plates (5000 cells/well), after an overnight incubation the test compound was added in 2 different concentrations (10 µM and 30 µM) and incubated for another 72 h under cell-culturing conditions. Then, 20 μL of 5 mg/mL MTT solution was added to each well and incubated for a further 4 h. The medium was removed, and the precipitated formazan crystals were dissolved in DMSO during 60 min of shaking at 37 °C. As the final step, the absorbance was measured at 545 nm by using a microplate reader (SPECTROStar Nano, BMG Labtech, Offenburg, Germany). Untreated cells were included as controls. […] These agents were additionally tested against NIH/3T3 fibroblasts to obtain results about their cancer selectivity. Two independent experiments were performed with five wells for each condition. Cisplatin (Ebewe GmbH, Unterach, Austria), a clinically used anticancer agent, was used as a positive control. Calculations were performed utilizing the GraphPad Prism 5.01 software (GraphPad Software Inc., San Diego, CA, USA).
For orientation: Formazan colour is commonly taken as a measure of viable cells.

In series [2] the test system is SiHa cells (cervical cancer). In words: MTT antiproliferative assay, SiHa. Format: cell-based, human. To be noted: Homo sapiens, 72 h, read-out: Growth inhibition (%) ± SEM. As to the method:
as §1, §2

In series [3] the test system is MDA-MB-231 cells (breast cancer). Kind of series: MTT antiproliferative assay, MDA-MB-231. The format is cell-based, human. To be noted: Homo sapiens, 72 h, read-out: Growth inhibition (%) ± SEM; for inhibition at 10 µM: MDA-MB-231, 10 μM; for inhibition at 30 µM: MDA-MB-231, 30 μM. As to the method: as §1, §2
Series [4] deals with A2780 ovarian cancer cells. Kind of series: MTT antiproliferative assay, A2780. To be noted: Homo sapiens, 72 h, read-out: Growth inhibition (%) ± SEM; for inhibition at 10 µM: A2780, 10 μM; for inhibition at 30 µM: A2780, 30 μM. Format: cell-based, human. As to the method: as §1, §2

As for `CCOC(=O)[C@H]1c2c(C)cccc2[C@H]2CC[C@]3(O)C[C@@]21C[C@]3(O)CN(Cc1ccccc1)Cc1ccccc1` [Compound 17, Ethyl (4bS,7S,8S,9aR,10R)-8-((dibenzylamino)methyl)-7,8-dihydroxy-1-methyl-4b,6,7,8,9,10-hexahydro-5H-7,9a-methanobenzo[a]azulene-10-carboxylate], the melting point (commonly the temperature, or range, at which the solid turns liquid) is 101.4 to 103 °C. In series [1], the inhibition (as a rule, the percentage by which the read-out fell short of the control) at 10 µM turned out to be 40.8 ± 1.19% and the inhibition at 30 µM was 45.6 ± 1.48%. Further, in series [2], the inhibition at 10 µM is less than 20% and the inhibition at 30 µM was found to be 47.1 ± 1.74%. In addition, in series [3], the inhibition at 10 µM is less than 20% and the inhibition at 30 µM was determined as 36.9 ± 1.58%. In addition, in series [4], the inhibition at 10 µM was less than 20% and the inhibition at 30 µM is 78.9 ± 1.12%.
Take `CCOC(=O)[C@H]1c2c(C)cccc2[C@H]2CC[C@]3(O)C[C@@]21C[C@]3(O)CN1CCCCC1` [Compound 21, Ethyl (4bS,7S,8S,9aR,10R)-7,8-dihydroxy-1-methyl-8-(piperidin-1-ylmethyl)-4b,6,7,8,9,10-hexahydro-5H-7,9a-methanobenzo[a]azulene-10-carboxylate]: the melting point fell in the range of 84 to 86 °C.
Turning to `CCOC(=O)[C@H]1c2c(C)cccc2[C@H]2CC[C@]3(O)C[C@@]21C[C@]3(O)CN[C@@H](C)c1ccccc1` [Compound 5, Ethyl (4bS,7S,8S,9aR,10R)-7,8-dihydroxy-1-methyl-8-((((S)-1-phenylethyl)amino)methyl)-4b,6,7,8,9,10-hexahydro-5H-7,9a-methanobenzo[a]azulene-10 carboxylate], the inhibition at 10 µM was 22.3 ± 5.01% in series [1], less than 20% in series [2], less than 20% in series [3] and 30.42 ± 0.22% in series [4]. Besides, the inhibition at 30 µM in series [1] was found to be 51 ± 9.48%; in series [2], 48.3 ± 4.04%; in series [3], 64.9 ± 1.91%; in series [4], 51.6 ± 2.69%.
Take `CCOC(=O)[C@@H]1c2c(C)cccc2C2CC[C@]3(O)C[C@@]21C[C@]3(O)CN[C@@H](C)c1cccc2ccccc12` (stereo partly drawn) [Compound 36, Ethyl (7S,8S,9aR,10S)-7,8-dihydroxy-1-methyl-8-((((S)-1-(naphthalen-1-yl)ethyl)amino)methyl)-4b,6,7,8,9,10-hexahydro-5H-7,9a-methanobenzo[a]azulene-10-carboxylate]: the inhibition at 10 µM in series [1] was 31.1 ± 2.01%; in series [2], 31.4 ± 1.21%; in series [3], 46.9 ± 1.05%; in series [4] it was 46.7 ± 1.46%. Also, the inhibition at 30 µM in series [1] stood at 95.4 ± 2.87%; in series [2], 97.69 ± 0.58%; in series [3] it was 95.53 ± 0.83%; in series [4], 94.81 ± 0.11%.
In turn, `CCOC(=O)[C@H]1c2c(C)cccc2[C@H]2CC[C@]3(O)C[C@@]21C[C@]3(O)CNCc1ccc(F)cc1` [Compound 9, Ethyl (4bS,7S,8S,9aR,10R)-8-(((4-fluorobenzyl)amino)methyl)-7,8-dihydroxy-1-methyl-4b,6,7,8,9,10-hexahydro-5H-7,9a-methanobenzo[a]azulene-10-carboxylate] showed a melting point of 253 to 254 °C. Also, in series [1], the inhibition at 10 µM was less than 20% and the inhibition at 30 µM amounted to 30.6 ± 4.19%. In series [2], the inhibition at 10 µM came to 26.6 ± 1.02% and the inhibition at 30 µM was found to be 53.6 ± 1.92%. Moreover, in series [3], the inhibition at 10 µM was less than 20% and the inhibition at 30 µM was less than 20%. Besides, in series [4], the inhibition at 10 µM was less than 20% and the inhibition at 30 µM amounted to 45.8 ± 1.62%.
Molecule `CCOC(=O)[C@@H]1c2c(C)cccc2C2CC[C@]3(O)C[C@@]21C[C@]3(O)CN[C@@H](C)c1ccc2ccccc2c1` (stereo partly drawn) [Compound 35, Ethyl (7S,8S,9aR,10S)-7,8-dihydroxy-1-methyl-8-((((S)-1-(naphthalen-2-yl)ethyl)amino)methyl)-4b,6,7,8,9,10-hexahydro-5H-7,9a-methanobenzo[a]azulene-10-carboxylate] showed a melting point of 56 to 59 °C. In series [1], the inhibition at 10 µM stood at 40.1 ± 1.21% and the inhibition at 30 µM came to 95.9 ± 2.21%. Besides, in series [2], the inhibition at 10 µM turned out to be 44.6 ± 0.74% and the inhibition at 30 µM stood at 98.41 ± 0.74%. Further, in series [3], the inhibition at 10 µM is 29.4 ± 1.66% and the inhibition at 30 µM came to 96.81 ± 0.82%. Moreover, in series [4], the inhibition at 10 µM is 42.7 ± 2.63% and the inhibition at 30 µM worked out at 95.4 ± 0.48%.
As for `CCOC(=O)[C@H]1c2c(C)cccc2[C@H]2CC[C@]3(O)C[C@@]21C[C@]3(O)CN1CCN(C)CC1` [Compound 22, Ethyl (4bS,7S,8S,9aR,10R)-7,8-dihydroxy-1-methyl-8-((4-methylpiperazin-1-yl)methyl)-4b,6,7,8,9,10-hexahydro-5H-7,9a-methanobenzo[a]azulene-10-carboxylate], the melting point was 42 to 45 °C.
Turning to `CCOC(=O)[C@H]1c2c(C)cccc2[C@H]2CC[C@]3(O)C[C@@]21C[C@]3(O)CNC(C)C` [Compound 19, Ethyl (4bS,7S,8S,9aR,10R)-7,8-dihydroxy-8-((isopropylamino)methyl)-1-methyl-4b,6,7,8,9,10-hexahydro-5H-7,9a-methanobenzo[a]azulene-10-carboxylate], the melting point fell in the range of 102 to 103 °C.
Consider `CCOC(=O)[C@@H]1c2c(C)cccc2C2CC[C@]3(O)C[C@@]21C[C@]3(O)CN[C@H](C)c1cccc2ccccc12` (stereo partly drawn) [Compound 37, Ethyl (7S,8S,9aR,10S)-7,8-dihydroxy-1-methyl-8-((((R)-1-(naphthalen-1-yl)ethyl)amino)methyl)-4b,6,7,8,9,10-hexahydro-5H-7,9a-methanobenzo[a]azulene-10-carboxylate], for which the inhibition at 10 µM in series [1] was 35.8 ± 0.42%; in series [2], 34.5 ± 1.89%; in series [3], less than 20%; in series [4], 35.9 ± 0.89%. The inhibition at 30 µM in series [1] is 97.35 ± 0.69%; in series [2] it was 97.58 ± 0.47%; in series [3] it was 96.64 ± 0.17%; in series [4] it was 96 ± 0.99%.
`C#CCNC[C@@]1(O)C[C@]23C[C@@]1(O)CC[C@@H]2c1cccc(C)c1[C@@H]3C(=O)OCC` [Compound 20, Ethyl (4bS,7S,8S,9aR,10R)-7,8-dihydroxy-1-methyl-8-((prop-2-yn-1-ylamino)methyl)-4b,6,7,8,9,10-hexahydro-5H-7,9a-methanobenzo[a]azulene-10-carboxylate] displayed a melting point of 111 to 112 °C.
For `CCOC(=O)[C@H]1c2c(C)cccc2[C@H]2CC[C@]3(O)C[C@@]21C[C@]3(O)Cn1cncn1` [Compound 28, Ethyl (4bS,7S,8S,9aR,10R)-8-((1H-1,2,4-triazol-1-yl)methyl)-7,8-dihydroxy-1-methyl-4b,6,7,8,9,10-hexahydro-5H-7,9a-methanobenzo[a]azulene-10-carboxylate], the melting point is 87 to 89 °C.
In turn, `CCOC(=O)[C@H]1c2c(C)cccc2[C@H]2CC[C@]3(O)C[C@@]21C[C@]3(O)Cn1ccnn1` [Compound 29, Ethyl (4bS,7S,8S,9aR,10R)-8-((1H-1,2,3-triazol-1-yl)methyl)-7,8-dihydroxy-1-methyl-4b,6,7,8,9,10-hexahydro-5H-7,9a-methanobenzo[a]azulene-10-carboxylate] yielded a melting point of 90 to 92 °C.
